Where two headings read alike, the source gives them in different places.
Key:
[1] = target: human TLR8 (Homo sapiens (Human), UniProt Q9NR97); test: TLR8 inhibition reporter assay (HEK-Blue cells, SEAP reporter, R848 stimulation);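 note: compounds tested from 0.05 nM to 50 µM, 22 h at 37 °C, SEAP measured with HEK-Blue Detection, inhibition relative to agonist plus DMSO versus a known inhibitor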
[2] = target: human TLR7 (Homo sapiens (Human), UniProt Q9NYK1); test: TLR7 inhibition reporter assay (HEK-Blue cells, SEAP reporter, gardiquimod stimulation); assay type: cell-based
[3] = target: human TLR9 (Homo sapiens (Human), UniProt Q9NR96); test: TLR9 inhibition reporter assay (HEK-Blue cells, SEAP reporter, ODN2006 stimulation);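 note: compounds tested over 0.05 nM to 50 µM, 22 h incubation, inhibition taken as SEAP signal drop from agonist plus DMSO wells toward a known inhibitor control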
[4] = read-out: TLR8 IC50, HEK-Blue cells overexpressing human TLR8, R848 15.9 μM
[5] = HEK-Blue cells overexpressing human TLR7, gardiquimod 7.5 μM
[6] = read-out: TLR9 IC50, HEK-Blue cells overexpressing human TLR9, ODN2006 5 nM
[7] = read-out: TLR8 IC50, HEK-Blue cells, R848 15.9 μM
[8] = HEK-Blue cells, gardiquimod 7.5 μM
[9] = read-out: TLR9 IC50, HEK-Blue cells, ODN2006 5 nM

human TLR9, sequence (Q9NR96 26-1032): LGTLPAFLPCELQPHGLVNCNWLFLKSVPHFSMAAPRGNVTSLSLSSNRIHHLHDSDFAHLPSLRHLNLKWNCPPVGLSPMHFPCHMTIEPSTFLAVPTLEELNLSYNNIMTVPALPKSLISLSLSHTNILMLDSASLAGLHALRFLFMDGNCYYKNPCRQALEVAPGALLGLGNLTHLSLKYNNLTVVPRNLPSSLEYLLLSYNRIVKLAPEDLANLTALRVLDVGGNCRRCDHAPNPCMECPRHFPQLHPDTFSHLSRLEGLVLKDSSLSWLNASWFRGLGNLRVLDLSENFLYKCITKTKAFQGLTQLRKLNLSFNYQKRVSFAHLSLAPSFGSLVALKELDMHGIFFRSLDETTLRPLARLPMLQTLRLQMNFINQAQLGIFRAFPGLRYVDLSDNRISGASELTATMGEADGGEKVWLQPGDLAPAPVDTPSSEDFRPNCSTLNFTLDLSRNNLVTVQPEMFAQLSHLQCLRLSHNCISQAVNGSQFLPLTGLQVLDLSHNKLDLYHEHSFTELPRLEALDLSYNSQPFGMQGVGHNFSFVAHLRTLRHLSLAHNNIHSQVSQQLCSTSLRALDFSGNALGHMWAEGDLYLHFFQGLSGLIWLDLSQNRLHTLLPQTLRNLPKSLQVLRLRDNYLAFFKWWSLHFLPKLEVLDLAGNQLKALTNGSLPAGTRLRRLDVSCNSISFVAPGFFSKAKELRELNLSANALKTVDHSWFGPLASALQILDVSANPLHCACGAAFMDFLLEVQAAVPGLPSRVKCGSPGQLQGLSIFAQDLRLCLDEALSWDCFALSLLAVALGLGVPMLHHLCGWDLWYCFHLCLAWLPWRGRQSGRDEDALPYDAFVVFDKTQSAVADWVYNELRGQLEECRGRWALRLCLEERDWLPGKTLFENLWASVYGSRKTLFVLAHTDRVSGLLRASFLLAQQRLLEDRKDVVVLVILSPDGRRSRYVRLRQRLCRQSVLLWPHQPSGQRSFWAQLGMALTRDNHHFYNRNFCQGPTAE
human TLR8, sequence (Q9NR97 27-1041): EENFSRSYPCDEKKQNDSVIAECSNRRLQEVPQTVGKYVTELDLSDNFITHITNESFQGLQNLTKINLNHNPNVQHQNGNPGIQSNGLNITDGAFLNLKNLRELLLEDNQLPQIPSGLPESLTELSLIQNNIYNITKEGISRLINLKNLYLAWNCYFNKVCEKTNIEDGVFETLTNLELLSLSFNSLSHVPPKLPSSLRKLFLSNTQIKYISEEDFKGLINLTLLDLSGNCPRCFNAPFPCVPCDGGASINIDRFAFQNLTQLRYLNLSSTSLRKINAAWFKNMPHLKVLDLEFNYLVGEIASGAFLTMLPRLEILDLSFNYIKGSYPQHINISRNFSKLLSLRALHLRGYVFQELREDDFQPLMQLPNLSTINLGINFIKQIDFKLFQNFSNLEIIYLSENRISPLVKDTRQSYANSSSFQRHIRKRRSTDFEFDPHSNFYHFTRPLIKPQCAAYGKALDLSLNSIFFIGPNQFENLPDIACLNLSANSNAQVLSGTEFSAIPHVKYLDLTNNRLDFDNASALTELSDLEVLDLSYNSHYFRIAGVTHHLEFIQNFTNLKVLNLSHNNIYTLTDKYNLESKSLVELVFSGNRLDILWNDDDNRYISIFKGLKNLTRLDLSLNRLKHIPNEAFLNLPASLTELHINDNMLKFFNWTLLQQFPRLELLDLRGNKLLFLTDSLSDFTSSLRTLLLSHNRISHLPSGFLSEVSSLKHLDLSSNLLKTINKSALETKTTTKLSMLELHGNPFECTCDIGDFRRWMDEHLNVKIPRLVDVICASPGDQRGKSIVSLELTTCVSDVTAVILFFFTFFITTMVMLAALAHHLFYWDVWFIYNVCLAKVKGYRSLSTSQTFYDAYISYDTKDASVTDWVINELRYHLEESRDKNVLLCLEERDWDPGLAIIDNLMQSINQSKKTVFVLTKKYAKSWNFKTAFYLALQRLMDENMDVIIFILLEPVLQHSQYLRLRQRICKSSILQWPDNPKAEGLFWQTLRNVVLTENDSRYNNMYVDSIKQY
human TLR7, sequence (Q9NYK1 27-1049): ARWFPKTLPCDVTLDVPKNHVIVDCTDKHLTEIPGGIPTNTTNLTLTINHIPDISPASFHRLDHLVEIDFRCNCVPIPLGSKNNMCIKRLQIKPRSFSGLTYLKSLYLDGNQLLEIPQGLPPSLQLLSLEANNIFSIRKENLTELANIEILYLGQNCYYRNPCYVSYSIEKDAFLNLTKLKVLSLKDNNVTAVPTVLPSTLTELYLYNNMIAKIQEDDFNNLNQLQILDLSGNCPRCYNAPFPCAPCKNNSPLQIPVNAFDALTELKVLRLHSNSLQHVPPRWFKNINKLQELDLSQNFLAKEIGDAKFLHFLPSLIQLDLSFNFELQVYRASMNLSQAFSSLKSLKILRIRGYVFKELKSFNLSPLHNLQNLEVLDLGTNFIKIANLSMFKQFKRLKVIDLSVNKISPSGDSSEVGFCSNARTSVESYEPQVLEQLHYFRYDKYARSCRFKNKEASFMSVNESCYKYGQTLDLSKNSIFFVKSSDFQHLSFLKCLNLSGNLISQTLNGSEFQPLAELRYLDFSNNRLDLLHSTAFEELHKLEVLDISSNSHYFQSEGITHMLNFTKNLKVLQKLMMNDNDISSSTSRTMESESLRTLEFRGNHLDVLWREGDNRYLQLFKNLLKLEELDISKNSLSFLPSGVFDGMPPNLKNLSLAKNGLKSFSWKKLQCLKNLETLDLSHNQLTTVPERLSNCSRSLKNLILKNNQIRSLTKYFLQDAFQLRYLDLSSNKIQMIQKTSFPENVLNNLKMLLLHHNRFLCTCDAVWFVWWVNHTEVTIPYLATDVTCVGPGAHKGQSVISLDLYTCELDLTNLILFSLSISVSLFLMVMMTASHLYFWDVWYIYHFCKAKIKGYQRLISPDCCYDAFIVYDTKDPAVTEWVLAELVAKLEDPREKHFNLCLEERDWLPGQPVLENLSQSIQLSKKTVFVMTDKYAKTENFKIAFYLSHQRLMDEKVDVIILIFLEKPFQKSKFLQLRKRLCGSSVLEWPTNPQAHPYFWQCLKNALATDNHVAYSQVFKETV

Row | SMILES | IC50 [1, 4] [nM] | IC50 [2, 5] [nM] | IC50 [3, 6] [nM] | IC50 [1, 7] [nM] | IC50 [2, 8] [nM] | IC50 [3, 9] [nM]
1 | Cc1cc(-c2[nH]c3ccc(C4CCN(C5COC5)CC4)cc3c2C(C)C)ccn1 [Example 711, 3-isopropyl-2-(2-methylpyridin-4-yl)-5-(1-(oxetan-3-yl)piperidin-4-yl)-1H-indole] | 11.2 | 11 | 2160 | – | – | –
2 | CCc1c(-c2ccnc(OC)c2)[nH]c2ccc(C3CCN(C4CCN(C5CCCC5)CC4)CC3)cc12 [Example 785, 5-(1′-cyclopentyl-[1,4′-bipiperidin]-4-yl)-3-ethyl-2-(2-methoxypyridin-4-yl)-1H-indole] | 117 | 790 | 282 | – | – | –
3 | Cc1cc(-c2[nH]c3ccc(C4CCN(C5CCNCC5C)CC4)cc3c2C(C)C)ccn1 (stereo not drawn) [Example 709, 3-isopropyl-5-(3′-methyl-[1,4′-bipiperidin]-4-yl)-2-(2-methylpyridin-4-yl)-1H-indole] | 12.6 | 32.4 | 393 | – | – | –
4 | COCCN1CCN(C(=O)CN2CCC(c3ccc4[nH]c(-c5cc(C)nc(C)c5)c(C(C)C)c4c3)CC2)CC1 [Example 265, 2-(4-(2-(2,6-dimethylpyridin-4-yl)-3-isopropyl-1H-indol-5-yl)piperidin-1-yl)-1-(4-(2-methoxyethyl)piperazin-1-yl)ethan-1-one] | 2.8 | 1.5 | 73 | – | – | –
5 | CCc1c(-c2ccnc(C(=O)OC)c2)[nH]c2ccc(C3CCN(C4CCN(CC(C)C)CC4)CC3)cc12 [Example 762, methyl 4-(3-ethyl-5-(1′-isobutyl-[1,4′-bipiperidin]-4-yl)-1H-indol-2-yl)picolinate] | 14.3 | 708 | 223 | – | – | –
6 | Cc1cc(-c2[nH]c3ccc(C4CCN(C(=O)CN(C)CCC5(O)CCCC5)CC4)cc3c2C(C)C)cc(C)n1 [Example 408, 1-(4-(2-(2,6-dimethylpyridin-4-yl)-3-isopropyl-1H-indol-5-yl)piperidin-1-yl)-2-((2-(1-hydroxycyclopentyl)ethyl)(methyl)amino)ethan-1-one] | 72.5 | 7.6 | 846 | – | – | –
7 | CNC(=O)C(=O)N1CCC(c2ccc3[nH]c(-c4ccnc(C)c4)c(C(C)C)c3c2)CC1 [Example 879, 2-(4-(3-isopropyl-2-(2-methylpyridin-4-yl)-1H-indol-5-yl)piperidin-1-yl)-N-methyl-2-oxoacetamide] | – | – | – | 168 | 37 | > 50000
8 | Cc1nccc(-c2[nH]c3ccc(C4CCN(C5CCN(C(C)C)CC5)CC4)cc3c2C)c1C [Example 812, 2-(2,3-dimethylpyridin-4-yl)-5-(1′-isopropyl-[1,4′-bipiperidin]-4-yl)-3-methyl-1H-indole] | – | – | – | 44.5 | 404 | 35
9 | Cc1cc(-c2[nH]c3ccc(C4CCN(C(=O)C(=O)NCCc5ccncc5)CC4)cc3c2C(C)C)cc(C)n1 [Example 860, 2-(4-(2-(2,6-dimethylpyridin-4-yl)-3-isopropyl-1H-indol-5-yl)piperidin-1-yl)-2-oxo-N-(2-(pyridin-4-yl)ethyl)acetamide] | – | – | – | 89.2 | 9.7 | 15700
10 | Cc1cc(-c2[nH]c3ccc(C4CCN(C5CC(C)OC(C)C5)CC4)cc3c2C(C)C)cc(C)n1 (stereo not drawn) [Example 455, 2-(2,6-dimethylpyridin-4-yl)-5-(1-(2,6-dimethyltetrahydro-2H-pyran-4-yl)piperidin-4-yl)-3-isopropyl-1H-indole] | 7.6 | 10.9 | 390 | – | – | –
11 | Cc1cc(-c2[nH]c3cc(F)c(C4CCNCC4)cc3c2C(C)C)c(C)cn1 [Example 80, 2-(2,5-dimethylpyridin-4-yl)-6-fluoro-3-isopropyl-5-(piperidin-4-yl)-1H-indole] | 1.3 | 2.7 | 583 | – | – | –
12 | Cc1cc(-c2[nH]c3ccc(C4CCN(CC(F)F)CC4)cc3c2C(C)C)cc(C)n1 [Example 327, 5-(1-(2,2-difluoroethyl)piperidin-4-yl)-2-(2,6-dimethylpyridin-4-yl)-3-isopropyl-1H-indole] | 52.9 | 15.6 | 3720 | – | – | –
13 | CC(C)c1c(-c2ccnc(N)c2)[nH]c2ccc(C3CCN(C(=O)C4CCNCC4)CC3)cc12 [Example 819, (4-(2-(2-aminopyridin-4-yl)-3-isopropyl-1H-indol-5-yl)piperidin-1-yl)(piperidin-4-yl)methanone] | – | – | – | 588 | 415 | 712
14 | Cc1cc(-c2[nH]c3ccc(C4CCN(C5CCOC(C)(C)C5)CC4)cc3c2C(C)C)ccn1 (stereo not drawn) [Example 719, 5-(1-(2,2-dimethyltetrahydro-2H-pyran-4-yl)piperidin-4-yl)-3-isopropyl-2-(2-methylpyridin-4-yl)-1H-indole] | 5.2 | 23.9 | 638 | – | – | –
15 | Cc1cc(-c2[nH]c3ccc(C4CCN(Cc5cc(C)on5)CC4)cc3c2C(C)C)c(C)cn1 [Example 685, 3-((4-(2-(2,5-dimethylpyridin-4-yl)-3-isopropyl-1H-indol-5-yl)piperidin-1-yl)methyl)-5-methylisoxazole] | 3.4 | 62.5 | 7510 | – | – | –
16 | Cc1cc(-c2[nH]c3ccc(C4CCN(C(=O)CNCC(C)(C)O)CC4)cc3c2C(C)C)cc(C)n1 [Example 375, 1-(4-(2-(2,6-dimethylpyridin-4-yl)-3-isopropyl-1H-indol-5-yl)piperidin-1-yl)-2-((2-hydroxy-2-methylpropyl)amino)ethan-1-one] | 80.6 | 13.1 | 1780 | – | – | –
17 | Cc1cc(-c2[nH]c3ccc(C4CCN(Cc5nnc(C6CC6)o5)CC4)cc3c2C(C)C)cc(C)n1 [Example 448, 2-cyclopropyl-5-((4-(2-(2,6-dimethylpyridin-4-yl)-3-isopropyl-1H-indol-5-yl)piperidin-1-yl)methyl)-1,3,4-oxadiazole] | 55.6 | 51.2 | 47400 | – | – | –
18 | Cc1cc(-c2[nH]c3ccc(C4CCN(Cc5cn(C)nn5)CC4)cc3c2C(C)C)cc(C)n1 [Example 442, 2-(2,6-dimethylpyridin-4-yl)-3-isopropyl-5-(1-((1-methyl-1H-1,2,3-triazol-4-yl)methyl)piperidin-4-yl)-1H-indole] | 6.7 | 5.3 | 1190 | – | – | –
19 | Cc1cc(-c2[nH]c3ccc(C4CCN(C(=O)CNC56CC7CC(CC(O)(C7)C5)C6)CC4)cc3c2C(C)C)cc(C)n1 [Example 343, 1-(4-(2-(2,6-dimethylpyridin-4-yl)-3-isopropyl-1H-indol-5-yl)piperidin-1-yl)-2-((3-hydroxyadamantan-1-yl)amino)ethan-1-one] | 20.3 | 9.8 | 685 | – | – | –
20 | COC[C@H](O)CN1CCC(c2ccc3[nH]c(-c4cc(C)nc(C)c4)c(C(C)C)c3c2)CC1 [Example 852, (R)-1-(4-(2-(2,6-dimethylpyridin-4-yl)-3-isopropyl-1H-indol-5-yl)piperidin-1-yl)-3-methoxypropan-2-ol] | – | – | – | 3.8 | 4.1 | 631
21 | Cc1cc(-c2[nH]c3ccc(C4CCN(CC5CN(Cc6ccccc6)CCO5)CC4)cc3c2C(C)C)cc(C)n1 (stereo not drawn) [Example 320, 4-benzyl-2-((4-(2-(2,6-dimethylpyridin-4-yl)-3-isopropyl-1H-indol-5-yl)piperidin-1-yl)methyl)morpholine] | 21.8 | 18.2 | 192 | – | – | –
